From the supplement of paper PMC10307832

Columns and labels:
Assay in all cases: relative viability (nuclei count vs DMSO), 5 days (fraction); higher = more cells survive
[1] = compound: CO[C@H]1C[C@@H]2CC[C@@H](C)[C@@](O)(O2)C(=O)C(=O)N2CCCC[C@H]2C(=O)O[C@H]([C@H](C)C[C@@H]2CC[C@@H](OCCO)[C@H](OC)C2)CC(=O)[C@H](C)/C=C(\C)[C@@H](O)[C@@H](OC)C(=O)[C@H](C)C[C@H](C)/C=C/C=C/C=C/1C [Everolimus] + CS(=O)(=O)CCNCc1ccc(-c2ccc3ncnc(Nc4ccc(OCc5cccc(F)c5)c(Cl)c4)c3c2)o1 [Lapatinib] (partner 2 µM)
Summary of the method: (§1)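 Cells from lung cancer lines were seeded into 1536-well plates and, one day later, dosed by pin tool. Treatments were either a single drug or a fixed dose of an anchor drug with five library-drug doses (not always all listed) in √10 steps. After 5 days, nuclei were stained in a one-step fixation (final 0.05% Triton X-100, 1% formaldehyde, 1 ug/ml Hoechst) and counted on 4× images, and relative viability is the treated-to-vehicle nuclei ratio, as the median of duplicate plates.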

[2] = compound: CO[C@H]1C[C@@H]2CC[C@@H](C)[C@@](O)(O2)C(=O)C(=O)N2CCCC[C@H]2C(=O)O[C@H]([C@H](C)C[C@@H]2CC[C@@H](OCCO)[C@H](OC)C2)CC(=O)[C@H](C)/C=C(\C)[C@@H](O)[C@@H](OC)C(=O)[C@H](C)C[C@H](C)/C=C/C=C/C=C/1C [Everolimus] + COc1cccc2cc(-c3nc([C@H]4CC[C@H](C(=O)O)CC4)n4ncnc(N)c34)[nH]c12 [OSI-027] (partner 0.5 µM)
Summary of the method: as §1

[3] = compound: CO[C@H]1C[C@@H]2CC[C@@H](C)[C@@](O)(O2)C(=O)C(=O)N2CCCC[C@H]2C(=O)O[C@H]([C@H](C)C[C@@H]2CC[C@@H](OCCO)[C@H](OC)C2)CC(=O)[C@H](C)/C=C(\C)[C@@H](O)[C@@H](OC)C(=O)[C@H](C)C[C@H](C)/C=C/C=C/C=C/1C [Everolimus] + C[C@]1(O)C[C@@H](c2nc(-c3ccc4ccc(-c5ccccc5)nc4c3)c3c(N)nccn32)C1 [Linsitinib] (partner 1 µM)
Summary of the method: as §1

[4] = compound: CO[C@H]1C[C@@H]2CC[C@@H](C)[C@@](O)(O2)C(=O)C(=O)N2CCCC[C@H]2C(=O)O[C@H]([C@H](C)C[C@@H]2CC[C@@H](OCCO)[C@H](OC)C2)CC(=O)[C@H](C)/C=C(\C)[C@@H](O)[C@@H](OC)C(=O)[C@H](C)C[C@H](C)/C=C/C=C/C=C/1C [Everolimus] + Cc1nc(NC(=O)N2CCC[C@H]2C(N)=O)sc1-c1ccnc(C(C)(C)C(F)(F)F)c1 [Alpelisib] (partner 2 µM)
Summary of the method: as §1

Cell Line	relative viability ([1]; first compound 0.01 µM)	relative viability ([1]; first compound 0.03162 µM)	relative viability ([1]; first compound 0.1 µM)	relative viability ([1]; first compound 0.3162 µM)	relative viability ([1]; first compound 1 µM)	relative viability ([2]; first compound 0.01 µM)	relative viability ([2]; first compound 0.03162 µM)	relative viability ([2]; first compound 0.1 µM)	relative viability ([2]; first compound 0.3162 µM)	relative viability ([2]; first compound 1 µM)	relative viability ([3]; first compound 0.01 µM)	relative viability ([3]; first compound 0.03162 µM)	relative viability ([3]; first compound 0.1 µM)	relative viability ([3]; first compound 0.3162 µM)	relative viability ([3]; first compound 1 µM)	relative viability ([4]; first compound 0.01 µM)	relative viability ([4]; first compound 0.03162 µM)	relative viability ([4]; first compound 0.1 µM)	relative viability ([4]; first compound 0.3162 µM)	relative viability ([4]; first compound 1 µM)
201T	0.911	1	0.852	0.882	0.938	0.574	0.549	0.519	0.499	0.509	0.805	0.876	0.78	0.78	0.823	0.919	0.893	0.859	0.847	0.893
A549	0.682	0.5	0.444	0.485	0.444	–	–	–	–	–	0.484	0.308	0.231	0.241	0.223	0.328	0.292	0.272	0.323	0.204
A-427	0.811	0.902	0.645	0.768	0.85	0.449	0.457	0.333	0.398	0.432	0.854	0.772	0.823	0.675	0.834	0.795	0.709	0.754	0.675	0.787
ABC-1	0.925	1.13	0.751	0.816	0.873	0.342	0.281	0.279	0.357	0.316	0.599	0.351	0.55	0.446	0.535	0.682	0.617	0.636	0.678	0.539
BEN	0.366	0.302	0.28	0.34	0.377	0.247	0.292	0.272	0.253	0.239	0.571	0.355	0.338	0.334	0.326	0.545	0.399	0.319	0.436	0.344
CAL-12T	0.483	0.426	0.33	0.463	0.433	0.221	0.299	0.25	0.309	0.296	0.452	0.56	0.447	0.616	0.562	0.378	0.464	0.266	0.351	0.46
COR-L23	0.744	0.829	0.804	1.01	0.918	0.334	0.352	0.374	0.419	0.367	0.552	0.501	0.603	0.708	0.652	0.492	0.476	0.482	0.505	0.567
COR-L 105	0.351	0.288	0.316	0.38	0.262	0.43	0.418	0.366	0.457	0.445	0.743	0.604	0.585	0.686	0.504	0.585	0.526	0.489	0.567	0.518
Calu-6	0.987	1.02	0.907	0.927	0.994	–	–	–	–	–	0.647	0.707	0.663	0.762	0.778	0.65	0.604	0.593	0.608	0.614
ChaGo-K-1	–	–	–	–	–	0.467	0.445	0.443	0.504	0.495	–	–	–	–	–	–	–	–	–	–
EBC-1	0.23	0.218	0.208	0.184	0.25	–	–	–	–	–	0.263	0.218	0.306	0.205	0.298	0.278	0.348	0.284	0.33	0.279
EKVX	0.158	0.161	0.159	0.171	0.161	0.518	0.427	0.289	0.358	0.43	0.863	0.728	0.63	0.402	0.568	0.479	0.48	0.436	0.61	0.449
EMC-BAC-2	0.675	0.563	0.49	0.571	0.517	0.288	0.275	0.274	0.307	0.283	0.587	0.542	0.532	0.517	0.501	0.499	0.46	0.388	0.461	0.481
EPLC-272H	0.615	0.73	0.543	0.605	0.587	0.206	0.204	0.203	0.24	0.253	1.15	0.786	0.64	0.619	0.657	0.797	0.577	0.592	0.586	0.638
H3255	0.249	0.238	0.266	0.212	0.225	0.531	0.426	0.381	0.402	0.339	0.804	0.695	0.559	0.602	0.504	0.526	0.412	0.48	0.441	0.334
HARA	0.546	0.468	0.541	0.714	0.526	0.277	0.345	–	0.282	0.336	0.839	0.8	0.646	0.674	0.713	0.564	0.457	0.499	0.507	0.412
HCC-15	0.899	0.899	0.881	0.981	0.871	0.502	0.517	0.447	0.543	0.546	0.787	0.777	0.692	0.739	0.653	0.763	0.678	0.685	0.608	0.605

Cell Line	relative viability ([1]; first compound 0.01 µM)	relative viability ([1]; first compound 0.03162 µM)	relative viability ([1]; first compound 0.1 µM)	relative viability ([1]; first compound 0.3162 µM)	relative viability ([1]; first compound 1 µM)	relative viability ([2]; first compound 0.01 µM)	relative viability ([2]; first compound 0.03162 µM)	relative viability ([2]; first compound 0.1 µM)	relative viability ([2]; first compound 0.3162 µM)	relative viability ([2]; first compound 1 µM)	relative viability ([3]; first compound 0.01 µM)	relative viability ([3]; first compound 0.03162 µM)	relative viability ([3]; first compound 0.1 µM)	relative viability ([3]; first compound 0.3162 µM)	relative viability ([3]; first compound 1 µM)	relative viability ([4]; first compound 0.01 µM)	relative viability ([4]; first compound 0.03162 µM)	relative viability ([4]; first compound 0.1 µM)	relative viability ([4]; first compound 0.3162 µM)	relative viability ([4]; first compound 1 µM)
HCC-44	1.01	1.11	1.12	1.01	0.938	0.382	0.438	0.434	0.384	0.548	0.467	0.545	0.313	0.349	0.411	0.616	0.597	0.44	0.511	0.44
HCC-78	0.633	1.28	0.521	0.36	0.534	0.348	0.332	0.572	0.311	0.347	0.482	0.319	0.272	0.28	0.293	0.244	0.244	0.213	0.234	0.228
HCC-366	0.89	1.11	0.994	0.992	0.589	0.755	0.614	0.49	0.727	0.5	0.338	0.372	0.274	0.291	0.343	0.334	0.231	0.251	0.25	0.267
HCC-827	0.191	0.13	0.163	0.204	0.153	0.624	0.613	0.596	0.482	0.47	1.01	0.977	0.979	1	0.838	0.925	0.736	0.656	0.682	0.637
HOP-62	0.646	0.569	0.533	0.659	0.782	0.548	0.511	0.448	0.517	0.503	0.669	0.603	0.477	0.607	0.449	0.683	0.551	0.517	0.518	0.429
IA-LM	0.718	0.395	0.377	0.272	0.432	–	–	–	–	–	0.296	0.306	0.243	0.267	0.282	0.185	0.334	0.27	0.149	0.288
LCLC-103H	–	–	–	–	–	0.347	0.385	0.402	0.367	0.366	1.04	0.905	0.864	0.831	0.747	0.887	0.855	0.846	0.776	0.639
NCI-H441	–	–	–	–	–	0.557	0.479	0.474	0.585	0.358	0.504	0.302	0.289	0.402	0.401	0.515	0.575	0.582	0.564	0.461
NCI-H522	–	–	–	–	–	0.658	0.501	0.617	0.621	0.591	–	–	–	–	–	–	–	–	–	–
NCI-H1299	0.975	1.06	0.974	0.994	1	–	–	–	–	–	0.855	1	0.544	0.848	0.819	1.04	1.09	1.01	1.06	1.06
NCI-H1648	–	–	–	–	–	0.247	0.252	0.268	0.281	0.257	–	–	–	–	–	–	–	–	–	–
NCI-H1650	0.615	0.707	0.645	0.742	0.489	0.489	0.444	0.468	0.484	0.574	–	–	–	–	–	–	–	–	–	–
NCI-H1703	0.569	0.481	0.548	0.489	0.847	–	–	–	–	–	0.293	0.281	0.447	0.488	0.463	0.213	0.22	0.29	0.239	0.338
NCI-H2170	0.214	0.242	0.228	0.222	0.247	0.464	0.338	0.481	0.422	0.421	–	–	–	–	–	0.365	0.367	0.333	0.312	0.354
NCI-H2342	–	–	–	–	–	0.501	0.456	0.431	0.515	0.547	–	–	–	–	–	–	–	–	–	–
SW 900	–	–	–	–	–	0.317	0.273	0.25	0.35	0.244	–	–	–	–	–	–	–	–	–	–
